Measured values reported in patent US20150087587A1, “Process for the Synchronization of Ovulation for Timed Breeding Without Heat Detection” (priority 2003, published 2015).

Legend:
Type in all cases: in vivo, swine
postpartum sows [1] = test: Timed injection 96 hours post-weaning and single timed insemination without estrus detection; pregnancy, embryos and CL (Example 3); conditions: 50 mcg deslorelin in SAIB at 96 hours post-weaning
Method: Approximately 170 postpartum sows were randomly divided into two equal groups comprised of controls and treated. Following weaning, the controls were detected for estrus and bred following the normal standard operating procedures for the farms on which they resided. The treated sows received a 50 mcg dose of deslorelin in SAIB at 96 hours post-weaning and were bred with a single insemination 28+/−2 hours later with no regard to estrus detection. The sows were examined for pregnancy by ultrasound at 21 days and slaughtered around 28 days post breeding, The entire reproductive tract was removed and corpora lutea and embryos were counted.

postpartum sows [2] = test: Litter size and pregnancy rate after treatment in postpartum sows at three farm sites (Example 4); conditions: regardless of estrus detection
Text: Postpartum sows were randomly distributed into three different groups comprised of Controls, Treatment 1, and Treatment 2, with the exception of Site 3, which was divided into two groups, Control and Treatment 2. Control sows were detected for estrus following weaning, and bred following the normal standard operating procedures for the farms on which they resided. Treatment 1 sows were detected for estrus following weaning, and received a 50 mcg dose of deslorelin in the morning when standing and were bred by AI 4 hours later and again at 24+/−2 hours later. Treatment 2 sows received a 50 mcg dose of deslorelin in SAIB at 96 or 120 hours post-weaning and were bred with a single insemination 28+/−2 hours later with no regard to estrus detection. […]

mature postpartum sows = test: Intravulvar injection at estrus detection with AI in mature postpartum sows (Example 2); conditions: 50 mcg deslorelin in SAIB intravulvar at estrus detection
Method: Sows were assigned randomly in blocks of two to either control or to be injected intravulvar with 50 mcg of deslorelin in SAIB at the time of estrus detection for sows first detected in estrus in the a.m. and 12 hours later for those first detected in estrus in the p.m. Treated animals were bred AI upon detected estrus and again 24 hours later if still in estrus. Controls received a saline injection on first detected estrus behavior estrus detection and were bred according to the farm's normal procedures.

Q: Which “Embryo Survival” value (postpartum sows [1]; single insemination) does the source give for `CCNC(=O)[C@@H]1CCCN1C(=O)[C@H](CCCN=C(N)N)NC(=O)[C@H](CC(C)C)NC(=O)[C@@H](Cc1c[nH]c2ccccc12)NC(=O)[C@H](Cc1ccc(O)cc1)NC(=O)[C@H](CO)NC(=O)[C@H](Cc1c[nH]c2ccccc12)NC(=O)[C@H](Cc1cnc[nH]1)NC(=O)[C@@H]1CCC(=O)N1` [Deslorelin, deslorelin] here?
A: 64%

Q: What about the “Pregnancy Rate” value (postpartum sows [1]; single insemination 28+/-2 hours later, no estrus detection) of the same compound?
A: 71%

Q: And the “Sows Pregnant” value (postpartum sows [1]; single insemination 28+/-2 hours later, 84 in group)?
A: 60

Q: And the “Litter sizes (in words)” value (postpartum sows [2])?
A: normal litter sizes

Q: What about the “Pregnancy rates, Control versus Treated (in words)” value (mature postpartum sows) of the same compound?
A: no significant difference
